Here are results for 4 compounds from US20230190611A1, “PERSONAL CARE COMPOSITIONS COMPRISING A METAL PIROCTONE COMPLEX” (Conopco, Inc., d/b/a UNILEVER, priority 2020, published 2023).

Series [1] in a line: Solubility of metal piroctone complexes in 5 wt% aqueous SLES 1EO solution. The series is classed as physicochemical. The conditions noted are these: 1% sample in 5 wt% aqueous solution of SLES 1EO at 20° C. Here is the method: The solubility of metal piroctone complexes at 20° C. in a 5 wt% aqueous solution of SLES 1EO (sodium lauryl ether sulfate) Is listed in Table 1: […]

Series [2] in a line: UV stability of ethanolic solutions. The series is classed as physicochemical. The conditions noted are these: 5 hours of UV irradiation (UVA 180 uW/cm2, UVB210 uW/cm2). Here is the method:
The UV stability of an ethanolic solutions (0.5 mM) of copper piroctone and manganese piroctone were measured and compared with a solution of Octopirox 1 mM solution.

In the case of `Cc1cc(CC(C)CC(C)(C)C)n([O-])c(=O)c1.Cc1cc(CC(C)CC(C)(C)C)n([O-])c(=O)c1.[Zn+2]` (stereo not shown) [1% Zn—PIR, Zinc bis-piroctone, reference compound], in series [1], the “% Solubility” value is listed as 111.8%.

As to `Cc1cc(CC(C)CC(C)(C)C)n(O)c(=O)c1.NCCO` (stereo not shown) [1% OCT, piroctone olamine, reference compound], in series [1], the “% Solubility” value stood at 100.2%. Besides, the “degraded after UV irradiation” value in series [2] (1 mM solution) is 46%.

Take `Cc1cc(CC(C)CC(C)(C)C)n([O-])c(=O)c1.Cc1cc(CC(C)CC(C)(C)C)n([O-])c(=O)c1.[Cu+2]` (stereo not shown) [1% Cu—PIR, Copper bis-piroctone]: in series [1], the “% Solubility” value amounted to 1.3%. Also, the “degraded after UV irradiation” value in series [2] (ethanolic solution 0.5 mM) is on record as 1.8%. `Cc1cc(CC(C)CC(C)(C)C)n([O-])c(=O)c1.Cc1cc(CC(C)CC(C)(C)C)n([O-])c(=O)c1.[Mn+2]` (stereo not shown) [1% Mn—PIR, Manganese bis-piroctone]: the “% Solubility” value in series [1] is recorded as 1.0%. For the same compound, in series [2] (ethanolic solution 0.5 mM), the “degraded after UV irradiation” value was determined as 3.2%.
